Data from US10159670B2, “Methods of diagnosing and treating motor neuron diseases and other cellular stress-related diseases” (priority 2012, dated 2018).

Tested on: eIF2a
Assay: Western blot of eIF2a S51 phosphorylation in NSC-34 cells
Type: cell-based
Details: 0.5 mM; 1 hr
Protocol: (FIG. 7A) miRNA expression level analysis in the motor neuron cell line NSC-34, treated with 6.25 nM Thapsigargin for 24 hrs, relative to cells treated with carrier alone (DMSO). Shown are average and s.d. of qPCR analyses of 3 independent experiments. Pre-miRNAs (light grey, normalized to Gapdh) and miRNAs (dark grey, normalized to Snord68). (FIG. 7B) mRNA levels encoding for proteins involved in the canonical stress response, normalized to the expression of beta-actin. (FIG. 7C) miRNA expression level analysis in mouse embryonic motor neurons, treated with 5 nM Thapsigargin for 72 hrs, relative to cells treated with carrier alone (DMSO). Shown are average and s.d. of qPCR analyses of three independent experiments. Pre-miRNAs (light grey, normalized to Gapdh and beta actin) and miRNAs (dark grey, normalized to Snord70). (FIG. 7D) mRNA markers of the canonical stress response, normalized to the expression of beta-actin. miRNA expression level analysis in NSC-34 cells, treated with Paraquat (PQ) (1 mM, 12 hrs, FIG. 7E) and sodium arsenite (0.5 mM, 60 min, FIG. 7F). pre-miRNA normalized to beta-actin mRNA (FIGS. 7E-F) and miRNAs to 5S (FIG. 7E) or to U6 and 5S (FIG. 7F). (FIGS. 7G-I) miRNA expression level analysis in mouse embryonic Wild-type fibroblasts (light grey) or phospho-mutant eIF2a S51A cells (black) treated with Thapsigargin (5 nM, 72 hrs) relative to carrier alone. […]

## O=[As]O [sodium arsenite]
  phosphorylation of eIF2a: sufficient to induce the phosphorylation of eIF2a
